Assay results: PubChem BioAssay AID330 (DTP/NCI, 2004)
Several values for one entry are separate records, joined by “and”; a condition that tells them apart may be missing. Equal values may be shown once. Inconclusive results and toxic doses are left out. The calls were made as follows: active = survival T/C of 150% or more; inactive = T/C below 125% in these data.

System: P388 leukemia ip, CD2F1 mice, survival T/C
Test: NCI In Vivo Anticancer Drug Screen. Data for tumor model P388 Leukemia (intraperitoneal) in CD2F1 (CDF1) mice
Settings: endpoint: median survival time, higher = longer survival
Procedure, shortened: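 Mice carrying the transplanted tumor received test compound or vehicle. Survival was recorded in each group, and the value is the treated-group measurement divided by that of the vehicle-treated control group.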

[1] = dose: 60.0 mg/kg/injection, schedule: Q01DX005 (ip), vehicle: saline with Tween-80
[2] = dose: 120.0 mg/kg/injection, schedule: Q01DX005 (ip), vehicle: saline with Tween-80
[3] = dose: 50.0 mg/kg/injection, schedule: Q01DX005 (ip), vehicle: saline with Tween-80
[4] = dose: 100.0 mg/kg/injection, schedule: Q01DX005 (ip), vehicle: saline with Tween-80
[5] = dose: 200.0 mg/kg/injection, schedule: Q01DX005 (ip), vehicle: saline with Tween-80

Measured: T/C

CCN=C=NCCCN(C)C
inactive: dose: 7.5 mg/kg/injection, schedule: Q01DX009 (ip), vehicle: saline 108 % of control | dose: 7.5 mg/kg/injection, schedule: Q04DX003 (ip), vehicle: saline 102 % of control | dose: 15.0 mg/kg/injection, schedule: Q01DX009 (ip), vehicle: saline 108 % of control | dose: 15.0 mg/kg/injection, schedule: Q04DX003 (ip), vehicle: saline 99 % of control | dose: 30.0 mg/kg/injection, schedule: Q01DX009 (ip), vehicle: saline 105 % of control | dose: 30.0 mg/kg/injection, schedule: Q04DX003 (ip), vehicle: saline 98 % of control | dose: 60.0 mg/kg/injection, schedule: Q01DX009 (ip), vehicle: saline 107 % of control

OC(C1=CCCCC1)(c1ccccc1)c1ccccc1
inactive: dose: 25.0 mg/kg/injection, schedule: Q01DX005 (ip), vehicle: Klucel (hydroxypropylcellulose) (HPC) 98 % of control | dose: 50.0 mg/kg/injection, schedule: Q01DX005 (ip), vehicle: Klucel (hydroxypropylcellulose) (HPC) 100 % of control | dose: 100.0 mg/kg/injection, schedule: Q01DX005 (ip), vehicle: Klucel (hydroxypropylcellulose) (HPC) 90 % of control | dose: 200.0 mg/kg/injection, schedule: Q01DX005 (ip), vehicle: Klucel (hydroxypropylcellulose) (HPC) 91 % of control

COC(=O)c1cccc2c(N)c(N)cc(C(=O)OC)c12
inactive: [1] 100 % of control | [2] 104 % of control | dose: 240.0 mg/kg/injection, schedule: Q01DX005 (ip), vehicle: saline with Tween-80 106 % of control

COc1ccc2c(N=[N+]=[N-])ccnc2c1
inactive: [1] 89 % of control | [2] 89 % of control

CC(=O)CSCP(=O)(c1ccccc1)c1ccccc1
inactive: [3] 100 % of control | [4] 99 % of control | [5] 99 % of control

Cc1ccc(NC(=O)Oc2ccc(Br)cc2Br)c([N+](=O)[O-])c1
inactive: dose: 50.0 mg/kg/injection, schedule: Q01DX009 (ip), vehicle: saline with Tween-80 115 % of control | dose: 50.0 mg/kg/injection, schedule: Q04DX003 (ip), vehicle: saline with Tween-80 115 % of control | dose: 100.0 mg/kg/injection, schedule: Q01DX009 (ip), vehicle: saline with Tween-80 115 % of control | dose: 100.0 mg/kg/injection, schedule: Q04DX003 (ip), vehicle: saline with Tween-80 96 % of control | dose: 200.0 mg/kg/injection, schedule: Q04DX003 (ip), vehicle: saline with Tween-80 99 % of control | dose: 400.0 mg/kg/injection, schedule: Q04DX003 (ip), vehicle: saline with Tween-80 115 % of control

CC1C(O)C2(Oc3cc4c(c5c3[C@@H](CC5O)[C@H]2C)CCC2Cc3nc5c(nc3C[C@@]42C)CC2CCC3C4=C[C@H]6O[C@@]7(O[C@@](C)(CO)C[C@@H]7O)C(C)[C@@]6(O)[C@]4(C)[C@@H](O)CC3[C@]2(C)C5)OC1(C)C (some centres undefined)
inactive: dose: 12.5 micrograms/kg/injection, schedule: Q01DX009 (ip), vehicle: saline + alcohol 107 % of control | dose: 25.0 micrograms/kg/injection, schedule: Q01DX009 (ip), vehicle: saline + alcohol 100 % of control | dose: 50.0 micrograms/kg/injection, schedule: Q01DX009 (ip), vehicle: saline + alcohol 107 % of control | dose: 100.0 micrograms/kg/injection, schedule: Q01DX009 (ip), vehicle: saline + alcohol 109 % of control

Cc1ccn2cc(CC(=O)O)nc2n1
inactive: dose: 100.0 mg/kg/injection, schedule: Q04DX003 (ip), vehicle: saline 101 % of control | dose: 200.0 mg/kg/injection, schedule: Q04DX003 (ip), vehicle: saline 106 % of control | dose: 400.0 mg/kg/injection, schedule: Q04DX003 (ip), vehicle: saline 105 % of control

N#Cc1ncc(C[n+]2ccccc2)nc1N
inactive: dose: 10.0 mg/kg/injection, schedule: Q01DX009 (ip), vehicle: saline 109 % of control | dose: 20.0 mg/kg/injection, schedule: Q01DX009 (ip), vehicle: saline 107 % of control | dose: 40.0 mg/kg/injection, schedule: Q01DX009 (ip), vehicle: saline 100 % of control

COC(=O)C1(OC(=O)CCC(=O)O)C(=O)NC2=C1C(=O)c1ccccc1C2=O (centres undefined)
inactive: [3] 109 % of control and 119 % of control | [5] 111 % of control and 113 % of control

CCCOc1cccc2c1C(=O)c1c(O)c3c(c(O)c1C2=O)C[C@@](O)(C(C)=O)C[C@@H]3OC1CC(N)C(O)C(C)O1 (some centres undefined)
inactive: dose: 3.13 mg/kg/injection, schedule: Q04DX003 (ip), vehicle: water 105 % of control | dose: 6.25 mg/kg/injection, schedule: Q04DX003 (ip), vehicle: water 121 % of control | dose: 12.5 mg/kg/injection, schedule: Q04DX003 (ip), vehicle: water 121 % of control

NC(=S)N/N=C\c1nccc2c(C(F)(F)F)cccc12
inactive: dose: 1.5 mg/kg/injection, schedule: Q04DX003 (ip), vehicle: saline with Tween-80 91 % of control | dose: 3.0 mg/kg/injection, schedule: Q04DX003 (ip), vehicle: saline with Tween-80 95 % of control | dose: 6.0 mg/kg/injection, schedule: Q04DX003 (ip), vehicle: saline with Tween-80 99 % of control | dose: 12.0 mg/kg/injection, schedule: Q04DX003 (ip), vehicle: saline with Tween-80 91 % of control

CN(CCc1ccccn1)c1ccc2c(c1)C(=O)c1ccccc1-2
inactive: [3] 100 % of control | [4] 93 % of control

Oc1cc2cccc[n+]2c2ccccc12
inactive: dose: 15.0 mg/kg/injection, schedule: Q01DX005 (ip), vehicle: Klucel (hydroxypropylcellulose) (HPC) 99 % of control | dose: 30.0 mg/kg/injection, schedule: Q01DX005 (ip), vehicle: Klucel (hydroxypropylcellulose) (HPC) 101 % of control | dose: 60.0 mg/kg/injection, schedule: Q01DX005 (ip), vehicle: Klucel (hydroxypropylcellulose) (HPC) 118 % of control and 97 % of control

FC(F)(F)c1ccc(NC(=S)SCc2ccc(Cl)cc2)cc1
inactive: dose: 50.0 mg/kg/injection, schedule: Q01DX009 (ip), vehicle: suspension in saline 90 % of control | dose: 100.0 mg/kg/injection, schedule: Q01DX009 (ip), vehicle: suspension in saline 100 % of control | dose: 200.0 mg/kg/injection, schedule: Q01DX009 (ip), vehicle: suspension in saline 108 % of control

COc1cc([N+](=O)[O-])ccc1C
inactive: dose: 100.0 mg/kg/injection, schedule: Q04DX003 (ip), vehicle: other 104 % of control | dose: 200.0 mg/kg/injection, schedule: Q04DX003 (ip), vehicle: other 100 % of control | dose: 400.0 mg/kg/injection, schedule: Q04DX003 (ip), vehicle: other 100 % of control

Nc1cc(-c2ccccc2)nn1-c1nnc(-c2ccccc2)c(-c2ccccc2)n1
inactive: [3] 95 % of control | [4] 100 % of control | [5] 95 % of control

Cc1cc(-c2cccc3ccccc23)[n+]([O-])cc1C
inactive: [3] 101 % of control | [4] 101 % of control | [5] 90 % of control

CCCCCCCCCCCCCCCCCC(=O)Nc1ncc([N+](=O)[O-])s1
inactive: dose: 50.0 mg/kg/injection, schedule: Q01DX009 (ip), vehicle: Klucel (hydroxypropylcellulose) (HPC) 106 % of control | dose: 100.0 mg/kg/injection, schedule: Q01DX009 (ip), vehicle: Klucel (hydroxypropylcellulose) (HPC) 101 % of control | dose: 200.0 mg/kg/injection, schedule: Q01DX009 (ip), vehicle: Klucel (hydroxypropylcellulose) (HPC) 101 % of control
